# Columns and labels:
# velvetleaf [1] = assay: Upland post-emergence treatment test, velvetleaf; assay type: in vivo, velvetleaf (Abutilon theophrasti); settings: for Herbicidal Efficacy AA = Velvetleaf: post-emergence spray at 3-4 leaf stage, 80 g/ha, 30th day after treatment, greenhouse; as to Herbicidal Efficacy AA = Velvetleaf: ranges in brackets are in %
# Source text: (§1) 97 Parts by weight of talc (trade name: Zeaklite, supplied by Zeaklite Industry) as a carrier, 1.5 parts by weight of alkylarylsulfonic acid salt (trade name: Neoplex, supplied by Kao-Atlas K.K.) as a surfactant and 1.5 parts by weight of a nonionic and anionic surfactant (trade names Sorpol 800A, supplied by Toho Chemical Co., Ltd.) were uniformly pulverized and mixed to prepare a carrier for a wettable powder.
# (§2) 90 Parts by weight of the above carrier for a wettable powder and 10 parts by weight of one of the compounds of the present invention were uniformly pulverized and mixed to obtain herbicides. Further, in Comparative Herbicide Examples, comparative herbicides were also prepared from the following compounds (A) and (B) in the same manner.
# (§3) Herbicidal efficacy and phytotoxicity to crops were determined on the basis of the ratio of remaining plant weight to plant weight in non-treated plot=(remaining plant weight in treated plot/plant weight in non-treated-plot)×100. The ratings were applied to the following biological tests.
# (§4) Seeds of weeds velvetleaf, redroot pigweed, common ragweed, green foxtail and large crabgrass and seeds of corn were sown in 1/5,000-are Wagner pots filled with upland soil, and covered with upland soil. The seeds were grown in a greenhouse, and at the stage of 3˜4 leaves of these plants, a predetermined amount of the herbicide prepared in the above (1) was suspended in water, and the suspension was uniformly sprayed onto leaf and stalk portions at a rate of 2,000 liters/hectare. Then, the plants were grown in the greenhouse, and on the 30th day after the treatment, the herbicide was evaluated for herbicidal efficacy and phytotoxicity to the corn on the basis of the ratings shown in (2).
# common lambsquaters = assay: Upland pre-emergence treatment test, common lambsquaters; assay type: in vivo, common lambsquaters (Chenopodium album); settings: pre-emergence soil surface spray, 80 g/ha, 20th day after treatment, greenhouse; also: ranges in brackets are in %
# Source text: as §1, §2, §3
# (§5) Seeds of weeds such as velvetleaf, common lambsquaters, redroot pigweed, common ragweed, green foxtail and large crabgrass and seeds of corn were sown in 1/5,000-are Wagner pots filled with upland soil, and covered with upland soil. Then, a predetermined amount of the herbicide prepared in the above (1) was suspended in water, and the suspension was uniformly sprayed onto the soil surface at a rate of 2,000 liters/hectare. Then, the seeds were grown in a greenhouse, and on the 20th day after the treatment, the herbicide was evaluated for herbicidal efficacy and phytotoxicity to corn on the basis of the ratings shown in (2).
# large crabgrass [2] = assay: Upland pre-emergence treatment test, large crabgrass; assay type: in vivo; settings: pre-emergence soil surface spray, 80 g/ha, 20th day after treatment, greenhouse; also: ranges in brackets are in %
# Source text: as §1, §2, §3, §5
# corn [3] = assay: Upland post-emergence treatment test, phytotoxicity to corn; assay type: in vivo; settings: post-emergence spray at 3-4 leaf stage, 80 g/ha, 30th day after treatment, greenhouse; also: ranges in brackets are in %
# Source text: as §1, §2, §3, §4
# common ragweed [4] = assay: Upland pre-emergence treatment test, common ragweed; assay type: in vivo, common ragweed (Ambrosia artemisilfolia); settings: for Herbicidal Efficacy DD = Common ragweed: pre-emergence soil surface spray, 80 g/ha, 20th day after treatment, greenhouse; as to Herbicidal Efficacy DD = Common ragweed: ranges in brackets are in %
# Source text: as §1, §2, §3, §5
# velvetleaf [5] = assay: Upland pre-emergence treatment test, velvetleaf; assay type: in vivo, velvetleaf (Abutilon theophrasti); settings: for Herbicidal Efficacy AA = Velvetleaf: pre-emergence soil surface spray, 80 g/ha, 20th day after treatment, greenhouse; as to Herbicidal Efficacy AA = Velvetleaf: ranges in brackets are in %
# Source text: as §1, §2, §3, §5
# green foxtail [6] = assay: Upland post-emergence treatment test, green foxtail; assay type: in vivo, green foxtail (Setaria viridis); settings: post-emergence spray at 3-4 leaf stage, 80 g/ha, 30th day after treatment, greenhouse; also: ranges in brackets are in %
# Source text: as §1, §2, §3, §4
# common ragweed [7] = assay: Upland post-emergence treatment test, common ragweed; assay type: in vivo, common ragweed (Ambrosia artemisilfolia); settings: post-emergence spray at 3-4 leaf stage, 80 g/ha, 30th day after treatment, greenhouse; also: ranges in brackets are in %
# Source text: as §1, §2, §3, §4
# corn [8] = assay: Upland pre-emergence treatment test, phytotoxicity to corn; assay type: in vivo; settings: pre-emergence soil surface spray, 80 g/ha, 20th day after treatment, greenhouse; also: ranges in brackets are in %
# Source text: as §1, §2, §3, §5
# large crabgrass [9] = assay: Upland post-emergence treatment test, large crabgrass; assay type: in vivo; settings: post-emergence spray at 3-4 leaf stage, 80 g/ha, 30th day after treatment, greenhouse; also: ranges in brackets are in %
# Source text: as §1, §2, §3, §4
# redroot pigweed [10] = assay: Upland post-emergence treatment test, redroot pigweed; assay type: in vivo, redroot pigweed (Amaranthus retroflexus); settings: for Herbicidal Efficacy CC = Redroot Pigweed: post-emergence spray at 3-4 leaf stage, 80 g/ha, 30th day after treatment, greenhouse; as to Herbicidal Efficacy CC = Redroot Pigweed: ranges in brackets are in %
# Source text: as §1, §2, §3, §4
# redroot pigweed [11] = assay: Upland pre-emergence treatment test, redroot pigweed; assay type: in vivo, redroot pigweed (Amaranthus retroflexus); settings: for Herbicidal Efficacy CC = Rough Pigweed: pre-emergence soil surface spray, 80 g/ha, 20th day after treatment, greenhouse; as to Herbicidal Efficacy CC = Rough Pigweed: ranges in brackets are in %
# Source text: as §1, §2, §3, §5
# green foxtail [12] = assay: Upland pre-emergence treatment test, green foxtail; assay type: in vivo, green foxtail (Setaria viridis); settings: pre-emergence soil surface spray, 80 g/ha, 20th day after treatment, greenhouse; also: ranges in brackets are in %
# Source text: as §1, §2, §3, §5
# [13] = pre-emergence, text summary of Table 7
Structure (SMILES),Herbicidal Efficacy AA = Velvetleaf (velvetleaf [1]),"herbicidal efficacy against velvetleaf (in words) (velvetleaf [1]; post-emergence, Tables 8 and 9)",Herbicidal Efficacy BB = Common lambsquaters (common lambsquaters),Herbicidal Efficacy FF = Large crabgrass (large crabgrass [2]),Phytotoxicity Corn (corn [3]),Herbicidal Efficacy DD = Common ragweed (common ragweed [4]),herbicidal efficacy against common ragweed (in words) (common ragweed [4]; [13]),Herbicidal Efficacy AA = Velvetleaf (velvetleaf [5]),herbicidal efficacy against velvetleaf (in words) (velvetleaf [5]; [13]),Herbicidal Efficacy EE = Green foxtail (green foxtail [6]),Herbicidal Efficacy DD = Common ragweed (common ragweed [7]),Phytotoxicity Corn (corn [8]),Herbicidal Efficacy FF = Large crabgrass (large crabgrass [9]),Herbicidal Efficacy CC = Redroot Pigweed (redroot pigweed [10]),"herbicidal efficacy against redroot pigweed (in words) (redroot pigweed [10]; post-emergence, Tables 8 and 9)",Herbicidal Efficacy CC = Rough Pigweed (redroot pigweed [11]),herbicidal efficacy against redroot pigweed (in words) (redroot pigweed [11]; [13]),Herbicidal Efficacy EE = Green foxtail (green foxtail [12])
"CCn1ncc(C(=O)c2cc(C)c3c(c2C)C(C)CS3(=O)=O)c1O (stereo not shown) [Compound (B), reference compound]",2 (41-60),inferior,4 (1-20),5 (0),++ (80-89),2 (41-60),inferior,1 (61-80),inferior,4 (1-20),5 (0),− (100),5 (0),2 (41-60),inferior,1 (61-80),inferior,5 (0)
Cc1c(C(=O)c2cnn(C)c2OC(=O)c2ccccc2)ccc2c1C(C)(C)CS2(=O)=O [Compound 39],5 (0),–,5 (0),5 (0),− (100),5 (0),–,5 (0),–,5 (0),5 (0),− (100),5 (0),5 (0),–,5 (0),–,5 (0)
CCS(=O)(=O)Oc1c(C(=O)c2ccc3c(c2C)C(C)(C)CS3(=O)=O)cnn1C [Compound 3],5 (0),–,5 (0),5 (0),–,5 (0),–,5 (0),–,5 (0),5 (0),–,5 (0),5 (0),–,5 (0),–,5 (0)
"CCC(=O)Oc1c(C(=O)c2ccc3c(c2C)C(C)(C)CS3(=O)=O)cnn1C [Compound 30, 5-(1′-methyl-5′-n-propionyloxypyrazol-4′-yl)carbonyl-3,3,4-trimethyl-2,3-dihydrobenzothiophene-1,1-dioxide]",–,–,5 (0),5 (0),–,5 (0),–,4 (1-20),–,–,–,− (100),–,–,–,5 (0),–,5 (0)
